Data as given in US20090131356A1, “miR-15, miR-26, miR-31, miR-145, miR-147, miR-188, miR-215, miR-216, miR-331, mmu-miR-292-3P REGULATED GENES AND PATHWAYS AS TARGETS FOR THERAPEUTIC INTERVENTION” (ASURAGEN, INC., priority 2006, published 2009).

System: Du145 cells
Experiment: Alamar Blue proliferation assay, Du145
Format: cell-based, human
Settings: 30 nM, normalized to negative control miRNA (100% proliferation)
Excerpt: The inventors assessed the therapeutic effect of hsa-miR-147 for prostate cancer by using 4 individual human prostate cancer cell lines. To measure cellular proliferation of prostate cancer cells, the following prostate cancer cell lines were used: PPC-1 and PC3, derived from a bone metastasis; Du145, derived from a brain metastasis; RWPE2, derived from prostate cells immortalized by human papillomavirus 18 and transformed by the K-RAS oncogene (Bello et al., 1997; Stone et al., 1978; Brothman et al., 1991). PC3, PPC-1, and Du145 cells lack expression of the prostate-specific antigen (PSA) and are independent of androgen receptor (AR) signaling. In contrast, RWPE2 cells test positive for PSA and AR.
PPC-1, Du145 and RWPE2 cells were transfected with synthetic hsa-miR-147 (Pre-miR™-hsa-miR-147, Ambion cat. no. AM17100) or negative control miRNA (NC; Pre-miR™ microRNA Precursor Molecule-Negative Control #2; Ambion cat. no. AM17111) in a 96-well format using a lipid-based transfection reagent. […] Proliferation was assessed 4-7 days post-transfection using Alamar Blue™ (Invitrogen) following the manufacturer's instructions. […] Fluorescent light units (FLU) were measured after 3 hours, normalized to the control, and plotted as percent change in proliferation. […]

Substance: hsa-miR-147: Synthetic pre-miR-147 (Ambion AM17100; Dharmacon in vivo); mature sequence GUGUGUGGAAAUGCUUCUGC, MIMAT0000251, SEQ ID NO:114 (synthetic pre-miR (Ambion/Dharmacon), chemistry not given here; listed as Homo sapiens)
- % proliferation: 61.50%
